The record followed here is patent publication US20180002247A1, “METHODS FOR CHIRAL RESOLUTION OF TROLOX” (BIOELECTRON TECHNOLOGY CORPORATION, priority 2014, published 2018).

The series is described as follows: Solubility assessment of (R)-Trolox in 12 solvents at 40° C. It counts as physicochemical. The settings on record: for solubility: organic solvent or mixture, thermodynamic from solid. On the procedure:
(R)-Trolox (97.89% ee, chemical purity>99.99% AUC) (100 mg) was weighed out in 12 different vials. 12 different solvents were added (one volume at a time) to the different vials and the mixture was maintained at 40° C. The volume of each solvent required to dissolve 100 mg of (R)-Trolox was recorded and the solubility was subsequently calculated.

A word on the solubility: it is how much of the substance goes into solution per volume.

≈ marks a conversion by molar mass, not a printed value.

Regarding `Cc1c(C)c2c(c(C)c1O)CCC(C)(C(=O)O)O2` (racemic) [(R)-Trolox, 6-hydroxy-2,5,7,8-tetramethylchroman-2-carboxylic acid], the “Solubility (in words)” value (all solvents except for pure water) is listed as “highly soluble”. The solubility stood at 524 mg/mL (≈ 2090 mM) (solvent 2-MeTHF); 459 mg/mL (≈ 1830 mM) (solvent 5% water/ACN); 854 mg/mL (≈ 3410 mM) (solvent 5% water/EtOH); 978 mg/mL (≈ 3910 mM) (solvent 5% water/IPA); 1040 mg/mL (≈ 4150 mM) (solvent 5% water/MeOH); 195 mg/mL (≈ 779 mM) (solvent ACN). For the same compound, the solubility amounted to 209 mg/mL (≈ 835 mM) (solvent EtOAc); 494 mg/mL (≈ 1970 mM) (solvent EtOH); 523 mg/mL (≈ 2090 mM) (solvent IPA); 252 mg/mL (≈ 1010 mM) (solvent IPAc); 1000 mg/mL (≈ 4010 mM) (solvent MeOH). Moreover, the “Solubility at 40° C.” value (solvent water) is recorded as “not soluble”.
